Measured values from patent publication US20250388857A1, “USE OF TRIBUTYRIN AS AN ADDITIVE FOR EMBRYONIC DEVELOPMENT CULTURE MEDIUM IN VITRO” (Institute of Animal Sciences and Veterinary Medicine, Hubei …, priority 2024, published 2025).

How the values were obtained:
mouse embryos [1] = test: detection of mitochondrial membrane potential, JC-1 staining; assay type: cell-based; conditions: 100 μmol/L tributyrin, 2-cell stage, vs control
Description: (§1) Therefore, exemplically, experiments are carried out in the experimental group of this example using culture medium added 100 μmol/L of tributyrin, specifically, the experiments are divided into the following two groups:
(§2) Experimental group: the development culture medium in vitro of mouse embryos containing 100 μmol/L of tributyrin was added to the special dish for embryo culture, 2 droplets were made, 50 μL of culture medium per droplets, covered with paraffin oil, pre-balanced in an incubator with 37° C., 5% CO2 saturated humidity for more than 6 hours, and the embryos were placed in well-balanced culture droplets, with 25˜35 pieces per droplets.
Referring to the steps of development culture in vitro of example 2, development culture in vitro was carried out on the above two treatment groups; according to the instructions of the mitochondrial membrane potential J C-1 detection kit (Biyuntian, C2006), the embryos of the control group and the experimental group at the 2-cell stage were transferred into 1×J C-1 staining working solution, incubated in the dark at 37° C., 5% CO2 incubator for 30 min, then wash the embryos with 1×J C-1 staining buffer, it was placed under an inverted fluorescence microscope for observation and photography. Image J software was used to analyze the average fluorescence intensity of J C-1 red and J C-1 green in embryos.

SOD2 = test: detection of antioxidant gene expression in mouse embryos (qPCR), SOD2; assay type: cell-based; conditions: 100 μmol/L tributyrin, 2-cell stage, vs control, RPLP0 internal control
Description: as §1, §2
(§3) Referring to the steps of development culture in vitro of example 2, development culture in vitro was carried out on the above two treatment groups; embryos from the control group and the experimental group at the 2-cell stage were obtained, the high-purity RNA was extracted according to the instructions of the RNAprep Pure Total RNA Extraction Kit for Micro Samples (Tiangen, DP420). […] (annealed) for 30 s; 40 cycles (PCR amplification); the fluorescent signal was collected at 55° C. extension, the RPLPO gene was used as an internal control, and the expression was calculated using the 2^−ΔΔct formula, wherein, the primer sequences of each gene are shown in Table 2 below: […]

histone H3K27ac = test: detection of histone acetylation level (H3K27ac immunofluorescence); assay type: cell-based, mouse; conditions: 100 μmol/L tributyrin, 2-cell stage, vs control
Description: as §1, §2
Referring to the steps of development culture in vitro of example 2, development culture in vitro was carried out on the above two treatment groups; embryos from the control group and the experimental group at the 2-cell stage were obtained, the histone H3K27ac level was detected by immunofluorescence. The specific methods and steps are as follows:
(1) Mouse embryos fixation and permeabilization: mouse embryos were placed in a washing solution (PBS containing 0.1% Tween-20 and 0.01% Triton X-100) for rapid washing for 1 time, then piped into the fixed permeabilization solution (PBS containing 4% paraformaldehyde and 0.5% Triton) and treated at room temperature for 50 min. […]

mouse embryos [2] = test: detection of reactive oxygen species (ROS) in mouse embryos, DCFH-DA fluorescence; assay type: cell-based; conditions: 100 μmol/L tributyrin, 2-cell stage, vs control
Description: as §1, §2
Referring to the steps of development culture in vitro of example 2, development culture in vitro was carried out on the above two treatment groups; according to the instructions of the reactive oxygen species detection kit (Biyuntian, S0033S), DCFH-DA was diluted to a working solution concentration of 5 µM with KSOM culture medium. […] Image J software was used to analyze the average fluorescence intensity of ROS in embryos.

mouse embryos [3] = test: development in vitro of mouse embryos (rate of 2-cell, 4-cell, blastocyst); assay type: cell-based; conditions: for The rate of 2-cell: 24 h culture; for The rate of 4-cell: 48 h culture
Description: Specifically, at 4:00 p.m. on the first day, 10 IU pregnant horse serum gonadotropin was injected intraperitoneally into Kunming female mouse with SPF level for 6˜9 weeks, and 8 IU chorionic gonadotropin was injected after 48 hours. At 9:00 the next day, the 9˜12-week male mouse was killed by cervical dislocation, and the tail of the epididymis next to the vas deferens was taken, after cutting with ophthalmic scissors in 200 μL of insemination droplet (Sigma, MR-070-D) is to release sperm for 60 minutes. The insemination droplet need to be pre-balanced the night before. At the same time, 4 female mouse were killed by neck detachment, the enlargement of oviduct was disposed of in the sperm solution, the insulin needle was used to open the ampulla side under the microscope, and the cumulus-oocyte complex (COCs) would be released from the ampulla under the action of squeezing or internal pressure. 8˜10 μL of sperm and COCs were taken in the insemination droplet. After 6 h after insemination, the zygotes (with two pronuclei, both male and female) were cleaned and transferred to different treatments of KSOM culture medium, specific groups are as follows:
Control group: the basic development culture medium in vitro of mouse embryos was added to the special small dish for embryo culture, 2 droplets were made, 50 μL of culture medium per droplets, covered with paraffin oil, pre-balanced in an incubator with 37° C., 5% CO2 saturated humidity for more than 6 hours, and the embryos were placed in well-balanced culture droplets, with 25˜35 pieces per droplets;
as §2, with “Treatment group 1:” for “Experimental group:”, “50” for “100”, “droplets;” for “droplets.”
as §2, with “Treatment group 2:” for “Experimental group:”, “droplets;” for “droplets.”
as §2, with “Treatment group 3:” for “Experimental group:”, “200” for “100”, “droplets;” for “droplets.”
The above different treatment groups were incubated in an incubator with 37° C., 5% CO2 saturated humidity for 24 h, 48 h, 72 h and 96 h, corresponding to the 2-cell, 4-cell, morula and blastocyst stages of embryonic development, respectively, and the embryonic development was observed.
The rate of cleavage (%)=number of cleavage embryos/number of fertilized eggs with male and female pronuclei×100%
The rate of blastocyst (%)=number of blastocysts/number of cleavage embryos×100%

mouse embryos [4] = test: detection of ATP level in mouse embryos; assay type: cell-based; conditions: 100 μmol/L tributyrin, 2-cell stage, vs control
Description: as §1, §2
Referring to the steps of development culture in vitro of example 2, development culture in vitro was carried out on the above two treatment groups; according to the instructions of the ATP detection kit (Biyuntian, S0027), the embryos of the control group and the experimental group at the 2-cell stage were tested for ATP. Add 16 μL of ATP detection lysate to 200 μL centrifuge tube and transfer into 40 pieces 2-cell stage embryos. […] 64 μL of ATP working solution (ATP detection reagent diluent: ATP detection reagent=4:1) was added to the tube, vortex and centrifuged to the bottom of the tube, quickly transferred to a black 96-well plate with a multifunctional microplate reader for detection.

[5] = test system: 5 hmC level in mouse embryonic genome; test: detection of DNA methylation level (5 hmC immunofluorescence); assay type: cell-based; conditions: 100 μmol/L tributyrin, 2-cell stage, vs control
Description: as §1, §2
Referring to the steps of development culture in vitro of example 2, development culture in vitro was carried out on the above two treatment groups; embryos from the control group and the experimental group at the 2-cell stage were obtained, in order to detect the DNA methylation level in mouse embryos, the cells were first fixed with paraformaldehyde, TritonX-100 enhanced the permeability of the cell membrane to facilitate the binding of antibody antigens. After acidification and base neutralization, the non-specific protein is blocked with 2% BSA, followed by incubation with the corresponding primary antibody and fluorescently labeled secondary antibody. The specific methods and steps are as follows: […]

GPX4 = test: detection of antioxidant gene expression in mouse embryos (qPCR), GPX4; assay type: cell-based; conditions: 100 μmol/L tributyrin, 2-cell stage, vs control, RPLP0 internal control
Description: as §1, §2, §3

SMILES: CCCC(=O)OCC(COC(=O)CCC)OC(=O)CCC [tributyrin]
- mitochondrial membrane potential level (relative fluorescence intensity of JC-1 red/green) (mouse embryos [1]): significantly improved
- expression of antioxidant gene SOD2 (SOD2): significantly increased
- histone H3K27ac level in mouse embryos (histone H3K27ac): significantly increased
- ROS level (average fluorescence intensity of ROS) in mouse embryos (mouse embryos [2]): significantly reduced
- The rate of 2-cell (mouse embryos [3]; 50 μmol/L tributyrin in KSOM): 96.58 ± 0.83%
- The rate of 4-cell (mouse embryos [3]; 50 μmol/L tributyrin in KSOM): 95.57 ± 0.57%
- The rate of 2-cell (mouse embryos [3]; 100 μmol/L tributyrin in KSOM): 96.91 ± 0.76%
- The rate of 4-cell (mouse embryos [3]; 100 μmol/L tributyrin in KSOM): 96.57 ± 0.37%
- The rate of 2-cell (mouse embryos [3]; 200 μmol/L tributyrin in KSOM): 96.63 ± 0.5%
- The rate of 4-cell (mouse embryos [3]; 200 μmol/L tributyrin in KSOM): 96.46 ± 0.5%
- number of cells (microscopic observation, FIG. 1A) (mouse embryos [3]; treatment group compared to control group): increased significantly
- ATP level in mouse embryos (mouse embryos [4]): significantly increased
- 5 hmC level in mouse embryos [5]: significantly increased
- expression of antioxidant gene GPX4 (GPX4): significantly increased
